Measurements reported in patent publication US20250295656A1, “COMBINATION OF LURBINECTEDIN AND IMMUNE CHECKPOINT INHIBITORS” (priority 2020, published 2025).

Assays:
Type in all cases: cell-based, human
[1] = test system: eukaryotic translation initiation factor 2 alpha (eIF2α); assay: eIF2α phosphorylation by immunofluorescence with phosphoneoepitope-specific antibody; details: U2OS; 10, 50 or 100 nM; 6 hours
Method: Human osteosarcoma U2OS cells were treated with 10, 50 or 100 nM lurbinectedin (Lurbi) for 6 hours. Thapsigargin (Thaps, 3 μM) was used as a positive control. The cells were fixed with 3.7% PFA and DNA was stained with 1 μM Hoechst 33342. Following the phosphorylation of the eukaryotic translation initiation factor 2 alpha (eIF2a) was assessed with phosphoneoepitope-specific antibody and was monitored by means of automated microscopy as an increase in cytoplasmic fluorescence intensity. (a,b) The level of transcription was measured in U2OS cell treated as above with Lurbi. The transcription inhibitor actinomycin D (ActD) was used as a control. The cells were fixed as above and following the colocalization of nucleolin and fibrillarin was assessed as an indicator for transcriptional activity (c,d) Scale bar equals 10 μm and bar charts depict mean values±SD of quadruplicate assessments (*p<0.01; *p<0.001, two-tailed Student's t test).
In a systematic screening campaign, the capacity of lurbinectedin to induce immunogenic cell death in cancer cells was assessed in human osteosarcoma U2OS cells stably expressing fluorescent biosensors for the detection of CALR-relocation (as a surrogate marker for CALR surface exposure), HMGB1 release and Type I IFN responses together with U2OS WT cells stained with the ATP-sensitive dye quinacrine. […]

[2] = test system: U2OS biosensor cells expressing GFP under the MX1 promoter; assay: Type I IFN response (MX1-GFP biosensor cells treated with supernatant); details: supernatant of treated U2OS cells after 48 hours fresh media; biosensor cells 48 hours; throughout all time points
Method: In a systematic screening campaign, the capacity of lurbinectedin to induce immunogenic cell death in cancer cells was assessed in human osteosarcoma U2OS cells stably expressing fluorescent biosensors for the detection of CALR-relocation (as a surrogate marker for CALR surface exposure), HMGB1 release and Type I IFN responses together with U2OS WT cells stained with the ATP-sensitive dye quinacrine. […] The induction of cell death was evaluated based on changes in the nuclear morphology visualized by means of the DNA intercalating dye Hoechst 33342.

[3] = test system: U2OS cells stably expressing HMGB1-GFP; assay: HMGB1 release (loss of nuclear HMGB1-GFP fluorescence); details: lurbinectedin 1 nM to 1 μM, MTX 1 and 3 μM, medium to late time points
Method: (a) Human osteosarcoma U2OS (a), human breast cancer HCC70 (b) human colon cancer HT29 cells (c) and murine methylcholantrene-induced fibrosarcoma MCA205 cells (d) were treated with lurbinectedin (Lurbi, 1 nM, 10 nM, 100 nM and 1 μM) for the indicated times. Subsequently, the cells were stained with 1 μM Hoechst 33342 and 1 μM propidium iodide and assessed for the loss of viability by automated image acquisition. Images were segmented, cellular debris was excluded and the number of cells with normal nuclear morphology was enumerated. Cells stably expressing CALR-GFP were treated as above. Following the cells were fixed with 3.7% of PFA, stained with 1 μM Hoechst 33342 and assessed by automated image acquisition. Images were segmented, cellular debris was excluded and CALR-GFP granularity (a surrogate marker of CALR exposure) was evaluated in the cytoplasmic region of cells with normal nuclear morphology. Wild type cells were treated as above and then assessed for cytoplasmic quinacrine granularity (after staining with the ATP-sensitive dye quinacrine together with Hoechst 33342) by automated image acquisition, segmentation and analysis. Cells stably expressing HMGB1-GFP were treated as above and then assessed for nuclear HMGB1-GFP fluorescence intensity. The cells were fixed and stained with Hoechst 33342 and images were acquired, segmented and analyzed. […]

COc1ccc2[nH]c3c(c2c1)CCN[C@]31CS[C@@H]2c3c(OC(C)=O)c(C)c4c(c3[C@H](COC1=O)N1[C@@H]2[C@H]2c3c(cc(C)c(OC)c3O)C[C@@H]([C@@H]1O)N2C)OCO4 [lurbinectedin]
phosphorylation of eIF2α [1]: dose-dependent phosphorylation
de novo GFP signal intensity (type 1 IFN response) [2]: significant increase
nuclear GFP signal (HMGB1-GFP) [3]: significant decrease
